Where two headings read alike, the source gives them in different places.
Columns and labels:
Id3 = molecular target: T1, Id3 (Homo sapiens, UniProt Q02535); assay: Knockdown of Id3 in TFK1 cell cultures; assay type: cell-based; details: TFK1, FIG. 22
T1 construct: endogenous in cells; host or cells: TFK1
Excerpt: Following the methods described herein (see, e.g., Examples 12-13), AGX-A and AGX51 were compared for their ability to mediate Id knockdown in cell cultures. FIG. 21 illustrates side-by-side comparative effects of AGX51 and AGX-A for knockdown of Id1 in TFK1 cell cultures, and FIG. 22 illustrates side-by-side comparative effects of AGX51 and AGX-A for knockdown of Id3 in TFK1 cell cultures.

E protein binding = assay: EMSA on whole cell lysates from HCT116 cells; assay type: cell-based; details: 24 hours treatment
Procedure: Electrophoretic mobility shift assays. To test the activity of compounds identified in the in silico screen, full-length E47 was purified from bacteria and mixed with a P^32 labeled E-box sequence derived from the muscle creatine kinase (MCK) enhancer, BSA, DTT, poly dI-dC, salmon sperm, and HeLa nuclear extract, in the presence or absence of purified full-length Id1. Increasing concentrations of the various test compounds dissolved in DMSO or DMSO alone were added to the reaction mixes for 30 minutes, resolved on a 5% non-denaturing polyacrylamide gel, and autoradiographed. Electrophoretic mobility shift assays (EMSAs) were carried out on whole cell lysates from AGX51-treated cells and the EMSA was performed as described previously (Tournay and Benezra, Mol Cell Biol, 16: 2418-30 (1996)).
Without being bound by theory, it was hypothesized that loss of Id proteins in response to AGX51 should result in an increase in E protein binding activity assuming little interference of the compound with the E proteins themselves. […] To determine if loss of Id activity precedes Id protein loss, EMSAs were carried out using cell lysates from HCT116 cells treated with AGX51 for one hour.

DU145 cells = assay: Prostate cancer cell morphology, growth and death; assay type: cell-based
Procedure: Prostate cancer cell lines DU145 and PC3 (in 10% BCS) will be cultured in Ham's F12 (Gibco, Carlsbad, Calif.) medium containing 10% BCS (Hyclone, Logan, Utah) and appropriate antibiotics (pen/strep, fungizaone, and gentamycin (Invitrogen Inc., Carlsbad, Calif.). All cells will be cultured at 37° C. in a fully humidified atmosphere containing 5% CO2.
At 50% confluence, the cells will be treated with either 100 μM DMSO, AGX51, or a compound of the present technology (such as AGX-A). The cell morphology and growth will be monitored daily for 1 week by microscopy for changes in morphology or cell death. Apoptosis will be determined by measuring caspase 3 and caspase 7 activities using the Caspase-Glo 3/7 Assay system from Promega (Madison, Wis.).

[1] = system: new blood vessel formation; assay: Matrigel plug anti-angiogenic assay; assay type: in vivo, mouse; details: in plugs 25 μg/mg or daily ip 30 or 100 mg/kg, 10 days
Procedure: VEGF-165 and FGF-2 treated Matrigel plugs will be implanted on Day 0 into C57BL/6 mice. Mice will be treated with either vehicle, AGX51, or a compound of the present technology (such as AGX-A). The AGX51 and a compound of the present technology will be provided either in the plugs (25 μg/mg) or by daily ip treatment (30 or 100 mg/kg) for 10 days. Plugs will be harvested on Day 10, fixed and paraffin embedded. Three sections ([…]) of each plug will be stained with an anti-CD31 antibody and counterstained with hematoxylin and eosin stain. CD31-positive microvessels will be counted for one entire cross-section per plug and the average micro-vessel density±SD vessels will be determined. Student's t-test will be used for statistical analysis.

4T1 = assay: MTT assay, 4T1; assay type: cell-based; details: Mus musculus
Excerpt: The 4T1 murine mammary tumor cell line and nine breast cancer cell lines representing the major breast cancer subtypes (ER+, HER2+, and TNBC) including MDA-MB-157, MDA-MB-436, MDA-MB-231, MDA-MB-453, MDA-MB-361, BT-474, SK-BR-3, MCF-7 and T47-D will be grown in RPMI or DMEM (Dulbecco's Modified Eagle Medium) media supplemented with 10% FBS (fetal bovine serum), 1% penicillin-streptomycin and 1% L-Glutamine. Patient derived xenograft cell lines BR7, BR11, and IBT will be established directly from breast cancer bone metastases specimens surgically resected from patients with informed consent. BR7 and BR11 specimens will be obtained from ER positive (HER2 negative and PR negative) metastatic breast cancer patients, while the IBT specimen will be obtained from a metastatic, triple negative breast cancer patient. Fresh tumor tissues will be quickly washed with ice cold PBS and minced into about 1-3 mm pieces in MEM medium (without FBS) using sterile razor blades. […] The cells will be treated with either 100 μM DMSO, AGX51, or a compound of the present technology such as AGX-A. The cell morphology and growth will be monitored daily for 1 week by microscopy for changes in morphology or cell death. […] Absorbance will then measured at 570 nm using a plate reader (Synergy 2, BioTek). […]

T1 sequence (Q02535 whole entry): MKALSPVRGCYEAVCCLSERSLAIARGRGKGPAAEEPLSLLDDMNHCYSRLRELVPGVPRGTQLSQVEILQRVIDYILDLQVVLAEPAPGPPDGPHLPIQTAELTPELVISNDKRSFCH

| Structure (SMILES) | Id3 knockdown potency vs AGX51 (Id3) | E protein binding in cell lysates (E protein binding) | DU145 cell death (DU145 cells; after six days) | effect on DU145 cells (DU145 cells; after three days) | new blood vessel formation in Matrigel plugs [1] | IC50 (4T1; 24 h, 4T1, MTT, read-out: IC50 value after 24 hours of treatment) | IC50 (4T1; 4T1 cells, FIG. 7D, read-out: IC50) |
| --- | --- | --- | --- | --- | --- | --- | --- |
| COc1ccccc1C(CCNCc1ccccc1)c1ccc(OC(C)C)cc1 (stereo not shown) [AGX-A, N-benzyl-3-(4-isopropoxyphenyl)-3-(2-methoxyphenyl)propan-1-anine] | superior anti-Id1 and anti-Id3 potency compared to AGX51 | – | – | – | – | – | – |
| CCC(=O)N(CCC(c1ccc2c(c1)OCO2)c1ccccc1OC)Cc1ccccc1 (racemic) [AGX51, N-(3-(benzo[d][1,3]dioxol-5-yl)-3-(2-methoxyphenyl)propyl)-N-benzylpropionamide] | – | small increase in E protein binding | lead to cell death | pronounced effect on DU145 cells | significant protection from new blood vessel formation | 26.7 µM | 26.7 µM |
